# Experimental data published in PMC8724838 (Biomolecules & Therapeutics, 2021).
# pEC50: −log10 of the molar value.
# Experiments:
# Type in all cases: cell-based
# [1] = biological target: T1, Mrgpra1 (Mus musculus, UniProt Q91WW5); assay: calcium imaging
# T1 sequence (Q91WW5 1-304): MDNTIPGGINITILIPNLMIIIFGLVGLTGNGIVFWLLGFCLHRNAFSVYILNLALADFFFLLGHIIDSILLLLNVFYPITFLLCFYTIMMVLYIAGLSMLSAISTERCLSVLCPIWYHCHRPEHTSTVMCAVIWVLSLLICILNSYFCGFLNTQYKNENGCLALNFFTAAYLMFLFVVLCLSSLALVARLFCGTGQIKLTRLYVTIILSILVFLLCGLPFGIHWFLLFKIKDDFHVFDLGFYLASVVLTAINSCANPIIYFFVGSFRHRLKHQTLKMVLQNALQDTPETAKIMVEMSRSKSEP
# [2] = biological target: T2, Mrgprb2 (Mus musculus, UniProt Q3KNA1); assay: calcium imaging
# T2 sequence (Q3KNA1 1-338): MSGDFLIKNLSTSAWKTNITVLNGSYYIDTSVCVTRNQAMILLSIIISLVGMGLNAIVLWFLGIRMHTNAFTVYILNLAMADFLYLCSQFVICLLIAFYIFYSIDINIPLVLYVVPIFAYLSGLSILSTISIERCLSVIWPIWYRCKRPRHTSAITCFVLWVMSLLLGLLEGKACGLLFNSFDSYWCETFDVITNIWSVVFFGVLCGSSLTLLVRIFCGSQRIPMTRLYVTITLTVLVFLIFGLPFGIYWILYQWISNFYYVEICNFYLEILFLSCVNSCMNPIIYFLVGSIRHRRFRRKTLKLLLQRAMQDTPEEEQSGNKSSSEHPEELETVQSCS
# [3] = biological target: T1, Mrgpra1; assay: calcium imaging, […] DCA in Mrgpra1-HEK293T cells
pEC50 [1],pEC50 [2],Compound,"calcium imaging, 100 μM DCA in Mrgpra1-HEK293T cells (weaker than LCA) [3]"
3.54,3.74,"C[C@H](CCC(=O)O)[C@H]1CC[C@H]2[C@@H]3CC[C@@H]4C[C@H](O)CC[C@]4(C)[C@H]3CC[C@]12C [LCA, 3α-hydroxy-5β-cholan-24-oic acid]",
,,"C[C@H](CCC(=O)O)[C@H]1CC[C@H]2[C@@H]3CC[C@@H]4C[C@H](O)CC[C@]4(C)[C@H]3C[C@H](O)[C@]12C [DCA, deoxycholic acid]","also elevated the fluorescence intensity in Mrgpra1-HEK293T, but to a lesser extent (Fig. 1B, 1C)"
